Results reported in US20230008508A1, “COMBINATION THERAPIES FOR THE TREATMENT OF CANCER” (H. LEE MOFFITT CANCER CENTER AND RESEARCH INSTITUTE, INC., priority 2019, published 2023).

Assays:
[1] = test system: ΔNp63; test: ΔNp63 expression / protein levels (western blots); type: cell-based; details: for ΔNp63 protein expression: western blot
Text: (§1) Here, is shown that deletion of the AN isoforms of p63 or p73 leads to metabolic reprogramming and regression of p53 deficient tumors (FIG. 1). […] When investigated further it was shown that pramlintide suppresses 4Np63 expression (FIG. 4). […] These findings were validated across the sensitive cell lines Colo16 and RDEB2 and the resistant cell lines SCCIC1 and SRB12 for pramlintide (symlin) administration and regulation by ΔNp63 showing reduced levels for CYR61 and CTGF in the sensitive lines and no effect or increases in resistant lines (FIG. 6). A similar observation was also made with the F-box protein FBXO16. […] Looking at additional cell types, ΔNp63 was expressed in sensitive cells but not resistant cells (FIG. 9). To see if the regulation pattern for CYR61, CTGF, and FBXO16 was maintained in HNSCC cell lines, the expression level for each was measured in SQ20B and FaDu cells with and without the application of pramlintide (symlin) (FIG. 10). As for the Sensitive cuSCC lines, the sensitive HNSCC lines upregulate FBXO16 and downregulate CYR61 and CTGF in response to both pramlintide showing that pramlintide mediated degradation of ΔNp63 affects target gene expression. Thus, target genes cay be used as a biomarker of responsiveness to pramlintide. We next investigated the effect of pramlintide (symlin) on ΔNp63 expression levels in SQ20B (FIG. 11) and FaDu (FIG. 12) cell lines.
(§2) In fact, it was observed that both pramlintide and HDACi treatment reduces ΔNp63 in H1975 lung adenocarcinoma (LUAD) cells (FIG. 15). […] To investigate what effects panobinostat has on the glycolytic rate of HCC95 and H1975 cells, glycolysis was measured by ECAR showing in both […] glycolysis was decreased with treatment (FIG. 17).

[2] = test system: SCCIC1; test: Sensitivity of cuSCC cell line to pramlintide (inhibition curve); type: cell-based
Text: (§3) Glycolysis, as measured by Extracellular Acidification Rate (Seahorse), is diminished by pramlintide administration (10 micromolar) in the sensitive SQ20B and FaDu Head and Neck SCC lines. […]
as §1

[3] = test system: Colo16; test: as above; type: cell-based
Text: as §3, §1

[4] = test system: SRB12; test: as above; type: cell-based
Text: as §3, §1

[5] = test system: FaDu Head and Neck SCC line; test: Glycolysis measured by Extracellular Acidification Rate (Seahorse); type: cell-based; details: 10 micromolar; sensitive FaDu HNSCC line; FIG. 2D
Text: as §3

[6] = test system: SQ20B Head and Neck SCC line; test: as above; type: cell-based; details: 10 micromolar; sensitive SQ20B HNSCC line; FIG. 2D
Text: as §3

[7] = test system: tumors; details: in-vivo; prior published studies; FIG. 20; cited from earlier work
[8] = test system: CTGF; test: Expression of ΔNp63 target gene CTGF; type: cell-based
Text: (§4) Sensitive lines downregulate CYR61 and CTGF in response to both pramlintide and direct siRNA-mediated knockdown of ΔNp63 showing that pramlintide mediated degradation of ΔNp63 affects target gene expression. Resistant lines upregulate CYR61 and CTGF in response to both pramlintide and direct siRNA-mediate knockdown of ΔNp63.
as §1

[9] = test system: HCC95 cells; test: Cell proliferation and survival (cell cycle arrest, annexin V apoptosis); type: cell-based; details: FIG. 16
Method: (§5) Cell cycle arrest and apoptosis are increased by pramlintide and HDACi in HCC95 lung SCC and H1975 lung adenocarcinoma cell lines.
as §2

[10] = test system: H1975 cells; test: as above; type: cell-based; details: FIG. 16
Method: as §5, §2

[11] = test system: SRB12 cells; test: Radiation treatment with and without pramlintide; type: cell-based; details: pramlintide at the IC40, FIG. 21
Method: During the experiments it was observed that Pramlintide induces ROS in in-vivo in tumors (FIG. 20). To investigate whether because of its effect on ROS pramlintide would have a synergistic effect on radiation sensitivity, SRB12 cells were treated with radiation with and without the presence of pramlintide. […] Accordingly, in one aspect, disclosed herein are methods of increasing the sensitivity of a cancer (such as for example, cutaneous squamous cell carcinoma (cuSCC) or lung cancer or any cancer comprising a p53, p63, or p73 mutation or aberrant expression thereof) in a subject to radiation therapy comprising administering to the subject an agent that inhibits ΔNp63 and/or ΔNp73. In one aspect the agent that inhibits ΔNp63 and/or ΔNp73 comprises an inhibitor of glycolysis (such as, for example, an amylin analog including but not limited to pramlintide).

[12] = test system: p53 deficient thymic lymphomas; test: Tumor regression in p53 deficient tumors; type: in vivo
Text: as §1

[13] = test system: p53 deficient lung cancers; test: Tumor regression in p53 deficient tumors; type: in vivo
Text: as §1

[14] = test system: spontaneous UV-driven cutaneous squamous cell carcinoma (cuSCC); test: Tumor regression in spontaneous UV-driven cuSCC model; type: in vivo; details: FIG. 3
Text: as §1

[15] = test system: CYR61; test: Expression of ΔNp63 target gene CYR61; type: cell-based
Text: as §4, §1

[16] = test system: cutaneous squamous cell carcinoma (cuSCC) cell lines; test: Glycolysis of cuSCC cell lines; type: cell-based
[17] = test system: H1975 lung adenocarcinoma cells; test: Glycolytic rate measured by ECAR; type: cell-based; details: FIG. 17
Method: (§6) Glycolysis as measured by ECAR in HCC95 lung SCC and H1975 lung adenocarcinoma cells are decreased by pramlintide.
as §2

[18] = test system: HCC95 lung SCC cells; test: Glycolytic rate measured by ECAR; type: cell-based; details: FIG. 17
Method: as §6, §2

[19] = test system: RDEB2; test: Sensitivity of cuSCC cell line to pramlintide (inhibition curve); type: cell-based
[20] = test system: FBXO16; test: Expression of ΔNp63 target gene FBXO16; type: cell-based
Text: Sensitive lines upregulate FBXO16 in response to both pramlintide and direct siRNA-mediate knockdown of ΔNp63 showing that pramlintide mediated degradation of ΔNp63 affects target gene expression. Thus target genes may be used as a biomarker of responsiveness to pramlintide. Resistant lines downregulate FBXO16 in response to both pramlintide and direct siRNA-mediate knockdown of ΔNp63 showing that pramlintide mediated degradation of ΔNp63 affects target gene expression.
as §1

[21] = resistant cuSCC lines (SCCIC1, SRB12), FIG. 6
[22] = sensitive HNSCC lines (SQ20B, FaDu), FIG. 10
[23] = sensitive cuSCC lines (Colo16, RDEB2), FIG. 6

CC[C@H](C)[C@H](NC(=O)[C@@H]1CCCN1C(=O)CNC(=O)[C@H](Cc1ccccc1)NC(=O)[C@H](CC(N)=O)NC(=O)[C@H](CC(N)=O)NC(=O)[C@H](CO)NC(=O)[C@H](CO)NC(=O)[C@H](Cc1c[nH]cn1)NC(=O)[C@@H](NC(=O)[C@H](CC(C)C)NC(=O)[C@H](Cc1ccccc1)NC(=O)[C@H](CC(N)=O)NC(=O)[C@H](C)NC(=O)[C@H](CC(C)C)NC(=O)[C@H](CCCNC(=N)N)NC(=O)[C@H](CCC(N)=O)NC(=O)[C@@H](NC(=O)[C@H](C)NC(=O)[C@@H]1CSSC[C@H](NC(=O)[C@@H](N)CCCCN)C(=O)N[C@@H](CC(N)=O)C(=O)N[C@@H]([C@@H](C)O)C(=O)N[C@@H](C)C(=O)N[C@@H]([C@@H](C)O)C(=O)N1)[C@@H](C)O)C(C)C)C(=O)N[C@@H](CC(C)C)C(=O)N1CCC[C@H]1C(=O)N1CCC[C@H]1C(=O)N[C@H](C(=O)N[C@@H](CC(N)=O)C(=O)N[C@H](C(=O)NCC(=O)N[C@@H](CO)C(=O)N[C@@H](CC(N)=O)C(=O)N[C@H](C(=O)N[C@@H](Cc1ccc(O)cc1)C(N)=O)[C@@H](C)O)C(C)C)[C@@H](C)O [pramlintide]
ΔNp63 expression ([1]; FIG. 4, cell line not stated): suppresses ΔNp63 expression | Dependence of ΔNp63 suppression on Fbxw7 expression ([1]; FIG. 13): needs to be present | ΔNp63 protein expression ([1]; FaDu, FIG. 12): decreased protein expression | ΔNp63 protein levels ([1]; H1975 LUAD cells, FIG. 15): reduce ΔNp63 | ΔNp63 protein levels ([1]; LUSC HCC95 cells, FIG. 14): reduces ΔNp63 protein levels | ΔNp63 protein expression ([1]; SQ20B, FIG. 11): decreased protein expression | Sensitivity to pramlintide [2]: resistant | Sensitivity to pramlintide [3]: sensitive | Sensitivity to pramlintide [4]: resistant | Glycolysis (Extracellular Acidification Rate) [5]: diminished | Glycolysis (Extracellular Acidification Rate) [6]: diminished | ROS in tumors [7]: induces ROS | CTGF expression [8, 21]: upregulate | CTGF expression [8, 22]: downregulate | CTGF expression [8, 23]: downregulate | Apoptosis (annexin V staining) ([9]; HCC95): increased apoptosis | Proliferation ([9]; HCC95 cells): reduced proliferation | Cell cycle arrest ([9]; HCC95 lung SCC): increased | Apoptosis (annexin V staining) ([10]; H1975): increased apoptosis | Proliferation ([10]; H1975 cells): reduced proliferation | Cell cycle arrest ([10]; H1975 lung adenocarcinoma): increased | Sensitivity to radiation treatment [11]: more sensitive to radiation treatment | Tumor regression [12]: rapid tumor regression | Tumor regression [13]: rapid tumor regression | Tumor regression [14]: induces tumor regression | CYR61 expression [15, 21]: upregulate | CYR61 expression [15, 22]: downregulate | CYR61 expression [15, 23]: downregulate | Glycolysis ([16]; resistant cuSCC lines, FIG. 2A, 2C): do not exhibit this decrease in glycolysis | Glycolysis ([16]; sensitive cells, FIGS. 2A-2D): suppresses glycolysis | Glycolysis (ECAR) [17]: decreased | Glycolysis (ECAR) [18]: decreased | Sensitivity to pramlintide [19]: sensitive | FBXO16 expression ([20]; resistant cuSCC lines, FIG. 8): downregulate | FBXO16 expression [20, 22]: upregulate | FBXO16 expression ([20]; sensitive cuSCC lines, FIG. 8): upregulate
